Test results: US12377166B2, “Iron oxide nanoparticle for targeted chemo-immunotherapy” (University of Washington, priority 2021, dated 2025)

Legend:
[1] = H&E histopathology of organs; type: in vivo, BALB/c mice; conditions: 10 mg/kg DOX equivalent, single I.V., 48 h
Experimental: (§1) One week after inoculated with 4T1-luc cells, mice were injected with various agents intravenously. Forty-eight hours later, mice were euthanized and organs (heart, kidney, liver, lung, and spleen) and tumors were harvested and pre-served in 10% formalin for 48 h. Formalin-fixed tissue samples were first transferred from PBS to 70% ethanol and maintained for 2 hours, and then were transferred into 95% ethanol/5% methanol and maintained for an additional 2 hours. The samples were transferred in absolute ethanol and maintained for 1 hour, and then transferred again into 3 consecutive absolute xylene solutions and maintained in each for 1 hour. The samples were dehydrated and then placed in 2 consecutive melted paraffin baths and maintained in each for 2 hours. The tissue samples were then embedded in paraffin blocks and sectioned at 10 um thickness and loaded onto microscope slides. The loaded slides were heated to remove excess paraffin and adhere the samples to the slides. The samples were then deparaffinized by a series of xylene, ethanol and PBS baths.
The deparaffinized samples were stained with haemotoxylin and eosin, and mounted with Prolong Gold mounting medium. Microscopic images of tissues were acquired using a Nikon ECLIPSE TE 2000-S microscope.

4T1-luc orthotopic tumor = experiment: Tumor growth, survival and metastasis in 4T1-luc primary (orthotopic) tumor model; type: in vivo, BALB/c mice
Experimental: 6-Week-old female BALB/c mice were used in this study. 4T1-luc cells were injected subcutaneously into the #9 mammary glands (10^6 cells in 0.05 mL PBS per mouse). Seven days after tumor inoculation, eighteen mice were randomly divided into 3 groups and each group was administered through intravenous injection with five doses of one of the following agents: PBS, DOX, and IONP-DOX-Poly IC-EBP. For free DOX, dose was 5 mg/kg per injection. For IONP-DOX-Poly IC-EBP, doses of DOX and Poly IC were 10 mg/kg and 18 mg/kg, respectively. Each mouse received an injection at day 7, 10, 13, 16 and 19 after tumor inoculation. The tumor size and body weight were monitored after first administration. Metastasis was monitored by IVIS imaging starting at day 22 after tumor inoculation. Mice were imaged at day 22, 25, 28, 31, 34, 37, 41, 45 and 50. Mice were euthanized following the approved animal protocol.

4T1 cells [2] = experiment: Cell uptake assay by flow cytometry; type: cell-based, murine; conditions: 2 h
Experimental: Cell uptake assay by flow cytometry. 4T1 cells were incubated with different agents for 2 h (10 μg/mL DOX or DOX equivalent NPs) at either 37° C. or 4° C., followed by washing with cold PBS for 3 times. Cells were then trypsinized and resuspended in cold PBS and analyzed by flow cytometry (FACSCanto II, BD Biosciences). Each condition was triplicated.

IL-12 [3] = experiment: Serum/plasma IL-12 after I.V. injection (ELISA); type: in vivo, mice; conditions: for change of plasma IL-12 level: I.V., DOX 5 mg/kg, Poly IC 18 mg/kg, or NP (DOX 10 mg/kg, Poly IC 18 mg/kg)
Experimental: Six-week-old mice were administered with IONP-DOX-Poly IC-EBP-Cy5 through I.V. injection (dosage: 10 mg/kg DOX or equivalent). At 1, 2, 4, 8, 24 and 72 h post-injection, blood (5-25 μL) was collected from tail vein. The total amount of blood withdrawn from each mouse never exceeded one percent of the total body weight of the animal during the experiment. Whole blood was diluted with PBS and spun using a benchtop centrifuge for 2 min at 5000 g to separate the plasma. The diluted plasma was added to a 96-well black plate. The plate was scanned on a SpectraMax i3 plate reader (fluorescence mode) to measure Cy5 (ex, 646 nm; em, 676 nm) and DOX (ex, 500 nm; em, 600 nm) fluorescence signals. Three mice were used for each group.
The same conditions in pharmacokinetics study were used here except that blood was collected before agent administration and 2, 6.5 and 24 h after administration. IL-12 in plasma was assessed using an ELISA kit following the manufacturer's instruction and quantified with a SpectraMax i3 plate reader.

[4] = tested on: 4T1-luc tumors and organs; experiment: DOX uptake in organs and tumors by confocal imaging; type: in vivo, BALB/c mice; conditions: 10 mg/kg DOX, single I.V., 48 h post-injection
Experimental: as §1
The deparaffinized tissue samples were stained with DAPI and WGA-AF647 and mounted with Prolong Gold mounting medium. Samples were imaged with a Leica SP8X confocal microscope.

4T1-luc flank tumor = experiment: Tumor growth inhibition in 4T1-luc flank tumor model; type: in vivo; conditions: for inhibition to tumor growth as compared to PBS-treated mice: three I.V. doses days 7, 10, 13, free DOX 5 mg/kg, NP DOX 10 mg/kg, Poly IC 18 mg/kg
Experimental: 6-Week-old female BALB/c mice were used. 4T1-luc cells were transfected to stably express luciferase so that bioluminescence imaging could be used to monitor tumor growth. 4T1-luc cells were trypsinized and suspended in PBS (10^7 cells/mL) and injected subcutaneously into the right flanks of mice (0.1 mL per mouse). Seven days after tumor inoculation, twenty-eight mice were randomly divided into 7 groups and each group was administered through intravenous injection with three doses of one of the following agents: PBS, IONPs, DOX, Poly IC, IONP-DOX-EBP, IONP-DOX-Poly IC, and IONP-DOX-Poly IC-EBP. […] For all NP agents, doses of DOX and Poly IC were 10 mg/kg and 18 mg/kg, respectively. Each mouse received an injection at day 7, 10 and 13 after tumor inoculation. The tumor size was measured by a caliper and the tumor volume was calculated by equation: V=width^2×length/2. The tumor size was measured every 3 days starting at day 4 after tumor cell inoculation. The body weight was also monitored after first agent administration.

[5] = tested on: bone marrow-derived dendritic cells (BMDCs); experiment: Confocal imaging of cellular uptake into BMDCs; type: cell-based, BALB/c mice; conditions: 10 μg/mL Poly IC equivalent, 1 h, 37 °C
Experimental: BMDCs preparation. BMDC were generated from female BALB/c mice of 6-8 weeks old. The isolation of bone marrow cells was carried out following the method described in Madaan, A., et al., Journal of Biological Methods (2014) 1 (1). Cells were resuspended in RPMI-1640 supplemented with 10% FBS, 20 ng/mL recombinant murine GM-CSF (Shenandoah Biotechnology, Inc, Warwick, PA), and antibiotics (Pen Strep). Cells were allowed to differentiate for 7 d with one addition of fresh media at day 3. At day 7, cells were aspirated and counted for assays. Medium containing 10 ng/mL GM-CSF was used in assays.
Confocal microscopic imaging of cellular uptake. Cells were seeded onto a chamber slide (Nunc™ Lab-Tek™ II Chamber Slide™ System, Thermo Fisher Scientific Rockford, IL) with a density of 50,000 per well and incubated overnight. DOX, IONP-DOX-EBP-Cy5, or IONP-DOX-Poly IC-EBP-Cy5 was added into cells at a concentration of 10 μg/mL Poly IC-equivalency and incubated for 1 h. Cells were then washed and imaged with a Leica SP8X confocal laser scanning microscope.

4T1 cells [6] = experiment: Alamar Blue cell viability assay; type: cell-based, murine; conditions: 72 h incubation
Experimental: Alamar Blue cell viability assay. Cells were seeded in a 96-well plate and incubated overnight. The following day, the medium was replaced with medium containing various agents. The cells were then incubated for 72 h. Cell viability was assessed using the Alamar Blue assay. Briefly, the medium was replaced with cell culture medium containing the reagent and allowed to incubate for 2 h. Following the incubation, a microplate reader (SpectraMax i3 multimode microplate reader, Molecular Devices) was used to determine the fluorescence intensity of the dye (550ex/590em). The fluorescence intensity from NP or free drug treated cells was compared to those from untreated control cells to determine percent viability. Each condition was triplicated.

[7] = tested on: T cells (CD8, CD25, CD69); experiment: Antigen-specific T cell response by flow cytometry in 4T1 tumor-bearing mice; type: in vivo, BALB/c mice; conditions: three days after treatment
Experimental: Twelve 6-week-old female BALB/c mice were used. 4T1 cells (10^5 cells per mouse) were inoculated subcutaneously into #9 mammary glands. The tumors were allowed to grow into palpable masses. Ten days after tumor inoculation, the 12 mice were separated into 4 treatment groups. Four treatments, including IONP-DOX-EBP-Poly IC (10 mg/kg DOX and Poly IC), IONP-DOX-EBP (10 mg/kg DOX), free Poly IC (10 mg/kg Poly IC) and PBS, were administered intravenously into four groups of mice bearing tumors (200 μL per mouse), respectively. Three days after administration, mice were euthanized, and tumors and spleens were harvested.
Harvested tumors and spleens were then sectioned, squeezed through 70 μm cell strainers and washed with PBS w/1% v/v ratio of FBS to obtain single cell suspensions. Cells were spun down with a centrifuge at 1500 rpm for 4 min and resuspended in 750 μL PBS w/1% v/v FBS. Anti-CD8-PE, anti-CD25-APC, and anti-CD69-FITC (Biolegend Inc.) solutions (3 μL each) were then mixed with 241 μL of PBS w/1% v/v FBS (total antibody solution volume for each single cell suspension was 250 μL). The cell/antibody suspension was then incubated in dark at room temperature for 30 mins. After incubation, 11 mL of PBS w/1% v/v FBS was added to all cell/antibody suspensions followed by centrifuging at 1500 rpm for 4 mins. Finally, all cell pellets were resuspended in 500 μL PBS w/1% v/v FBS and analyzed by flow cytometry (FACSCanto II).

IL-12 [8] = experiment: IL-12 production by BMDCs (ELISA); type: cell-based, BALB/c mice; conditions: 10 μg/mL Poly IC equivalent, 24 h
Experimental: IL-12 production by ELISA assay. All conditions used were same as those for viability assay. Twenty-four hours after addition of agents into cell medium, supernatants were collected and IL-12 levels in medium were assessed by an ELISA assay kit following the manufacturer's protocol. Each condition was triplicated.

Row | Compound | heart damage (H&E) [1] | pathological changes in organs other than heart (H&E) [1] | median survival time (4T1-luc orthotopic tumor; five I.V. injections 3 days apart, free DOX 5 mg/kg, NP DOX 10 mg/kg, Poly IC 18 mg/kg) [days] | metastasis delayed to day after tumor inoculation (4T1-luc orthotopic tumor; five I.V. injections, IVIS bioluminescence) [days] | mean fluorescence intensity (MFI) of DOX, cellular uptake (4T1 cells [2]; 10 μg/mL DOX equivalent) | DOX taken up by cells at 4° C. (4T1 cells [2]; 4 °C vs 37 °C) [%] | change of plasma IL-12 level (IL-12 [3]) | DOX signal in liver [4] | DOX signal in tumors [4] | time to mouse death from severe toxicity (4T1-luc flank tumor; free DOX 10 mg/kg I.V.) | inhibition to tumor growth as compared to PBS-treated mice (4T1-luc flank tumor) | uptake and localisation of DOX in BMDCs [5] | IC50 (cell viability) (4T1 cells [6]; DOX concentration) | time of peak IL-12 level post injection (IL-12 [3]; I.V. injection) [h] | CD8 cells in tumor [7] [%] | CD25 cells in tumor [7] [%] | CD69 cells in tumor [7] [%] | production of IL-12 in cellular supernatants (IL-12 [8]) | toxicity to cells (viability) (4T1 cells [6])
1 | COc1cccc2c1C(=O)c1c(O)c3c(c(O)c1C2=O)C[C@@](O)(C(=O)CO)C[C@@H]3O[C@H]1C[C@H](N)[C@H](O)[C@H](C)O1 [DOX, doxorubicin] | severe heart damage | No pathological changes | 32.5 | 31 | 451 | 10 | did not increase the IL-12 level | strong and evenly distributed fluorescence signal | No observable DOX signal | less than 2 weeks | small | can enter BMDCs | about 0.36 μg/mL |  |  |  |  |  | 
2 | polyinosinic:polycytidylic acid [Poly IC] |  |  |  |  |  |  | rapid elevation of the IL-12 level |  |  |  | small |  |  | 1.5 | 8.63 | 7.91 | 3.57 | equivalent production of IL 12 | non-toxic to cells
